Test [1] has as its system human K-562 erythroleukaemical cell-line. The test is described as follows: Inhibition of the proliferation of tumor cells (K-562). The following applies: 72nd hour after treatment, percentage of the control. The format is cell-based. As for the experimental part: In the test human K-562 erythroleukaemical cell-line is used (Karolinska Institute, Stockholm). Incubation is carried out in a nutrient medium designated RPMI-1640 (manufactured by Flow, Great Britain) comprising 10% of foetal calf serum, at a temperature of 37° C., in a humidified incubator containing 3% of carbon dioxide, in plastic dishes. Every point of measurement corresponds to the average of the data measured in three dishes, each. At the beginning of the test the dilution amounts to 0.5×10^5 cells/ml. Treatment is carried out 24 hours after dilution in a manner that the medium is not changed after the treatment. The cells are counted for 96 hours after dilution every 24th hour wit the aid of a Buerker chamber.
Under the effect of the peptide in the 24th hour after treatment the cell number stagnates and later it increases to a very small extent. […] The tumor-cell division inhibiting effect of the new peptides is summarized in Table 1 (72 hours after treatment). The rate of inhibition is expressed in the percentage of the control. It clearly appears from the data of the Table that the tested peptides inhibit the proliferation of human K-562 erythroleukaemic cells.

In test [2] the test system is lymphocytes inhibited by Azathioprine. The test is described as follows: E-rosetta test inhibited by Azathioprine. The format is cell-based. As for the experimental part: Inhibition of the proliferation of T-lymphocytes is tested in the E-rosetta test inhibited by Azathioprine [6-(1-methyl-4-nitroimidazole-5-yl-thio)-purine; Thymus 1, 195 (1980)].
To 200 μl of a healthy lymphocyte cell-suspension 500 μl/ml of Azathioprine and 200 μl of a separate dilution of the test compound in HBBS buffer (manufacturer: Flow, Great Britain) are added (concentration range: 10^-3 to […]). The mixture is incubated at a temperature of 37° C. in air containing 5% of carbon dioxide for 60 minutes, whereupon 200 μl of a 1% sheep erythrocyte suspension are added. The mixture thus-obtained is centrifuged at 1,000 r.p.m. for 5 minutes, the supernatant is removed by decanting and in the suspension the lymphocytes forming E-rosetta are counted under a microscope from at least 400 cells.
Under the effect of the peptides the E-rosetta forming activity of the lymphocytes inhibited by Azathioprine increases to different extent. […] It appears from the data of Table 2 that the tested peptides increase the E-rosetta forming capacity of inhibited lymphocytes, i.e. the peptides of the present invention show immunostimulant effect.

The subject of test [3] is antibody production inhibited by cyclophosphamide. The test is described as follows: Effect on antibody production in mice treated with cyclophosphamide. The format is in vivo, CELP mice. The conditions noted are these: cyclophosphamide 100 mg/kg i.p., titer on 6th day. The protocol: The effect on in vivo antibody production is tested on CELP mice treated with a 100 mg/kg body weight dose of cyclophosphamide {2-[bis-(2-chloroethyl)-amino]-tetrahydro-2H-1,3,2-oxaza -phosphorine-2-oxide; method: Z. Naturforsch. 35B, 1476 (1980)}. The mice are intraperitoneally immunized with a 1% sheep erythrocyte suspension previously washed three times with a 0.9% sodium chloride solution after 10 minutes of centrifuging at 2,500 r.p.m. Simultaneously with immunization carried out on the 0. day, the activity of the immune system is suppressed by means of treatment with a 100 mg/kg i.p. does of cyclophosphamide. On the 3rd day of the test the peptides are administered to the animals intraperitoneally in a dose of 5, 50 and occasionally 100 mg/kg respectively. On the 6th day of the test blood is taken retroorbitally from the mice and the anti-sheep erythrocyte titer of the serum is determined. […] The effect of the peptides is expressed as percentage of the relief of inhibition (G %).

Test [4] has as its system inflammation induced by oxozolone. As to the kind of experiment: Dermatitis test induced with oxazolone. It counts as in vivo, CFLP mice. The conditions noted are these: 24th hour after treatment, ear weight increase. The protocol: In this test a modified pharmacological model of D. P. Evans et al. [Br. J. Pharmac. 43, 403-488 (1971)] is used.
The abdominal skin of male CFLP mice weighing 20-22 g is painted after the removal of the hair with 0.1 ml of a 2% solution of oxazolon (4-ethoxymethyl-2-phenyl-oxazoline, manufacturer Sigma) in sunflower oil. On the right ear of the test animals 7 days after sensitization (painting) inflammatory reaction is induced with the aid of 10 μl of a 2% acetonous oxazolone solution and simultaneously the animals are treated with a 1 or 2 mg/kg, respectively, i.p. does of the test compound. The test compound is dissolved in a physiological sodium chloride solution in such a concentration that the active ingredient content corresponding to the dose should be dissolved in a volume of 0.5 ml/10 g animal body weight.
The antiinflammatory effect is determined as follows: the animals are sacrificed in the 24th hour after treatment, whereupon the right and left ears are cut off. The percentual weight increase of the right ear related to the left ear is characteristic of the rate of inflammation induced during the test, while the percentual reduction of weight increase of the treated animals related to the untreated control is proportional to the antiinflammatory effect. In Table 4 the reduction of weight increase (antiinflammatory effect) achieved by the test compounds is disclosed, as the percentage of the untreated control.

In a further test the test system is Lewis Lung Tumor (LLT). As to the kind of experiment: Tumor metastasis inhibiting effect. It counts as in vivo, C57 B1 mice. The following applies: single 10 mg/kg i.p., 18th day. As for the experimental part: 20 g male C57 B1 mice divided into groups consisting of 5 animals each, are injected with a Lewis Lung Tumor (LLT) cell-suspension. The said cell-suspension is administered into the tail vein, in a dose of 10^5 cells/mouse. Twenty-four hours after the administration of the tumor-cells the animals are treated with a single 10 mg/kg i.p. dose of the test compound. On the 18th day following infection with the tumor the animals are sacrificed and the cancer noduli appearing in the lungs are counted under a stereomicroscope. Animals not treated with peptide serve as control. In Table 8 the results obtained with Glp-Lys-NH2 dipeptide amide are disclosed.

Test [5] concerns peritoneal exsudatum cells (PEC). As to the kind of experiment: Effect on phagocytosis, in vivo. Set-up: species or system CFLP mice. The following applies: 24th hour after treatment, control 179.7 ± 3.6. The protocol:
Male CFLP mice having a body of weight of 22-23 g are divided into four groups of 8-12 animals each. The animals of the test groups are treated with Glp-Lys-NH2 -mandelate for 2 days. The treatment is carried out by administering a 0.1, 1 or 10 mg/kg s.c. dose, respectively, of the active ingredient once a day, in the form of a solution in a physiological sodium chloride solution. In the 24th hour after the last treatment the yeast cell incorporating capacity of the peritoneal exsudatum cells (PEC) is determined. In the Table the x±S.E.M. data relate to the number of yeast cells incorporated into the 100 PEC cells.

Test [6] deals with PEC cells. The test is described as follows: Phagocytosis inhibited by cyclophosphamide, simultaneously administered cyclophosphamide and peptide. The format is in vivo, CFLP mice. The conditions noted are these: 2 days, CY alone 102.5 ± 4.8, control 186.3 ± 7.8. As for the experimental part: (§1) Male CFLP mice weighing 22-23 g are divided into five groups of 8-12 animals each. The animals belonging to the test groups (all groups except the control one) are treated for two days once a day with a 80 mg/kg p.o. dose of cyclophosphamide and the animals of three of the said groups are treated simultaneously with the administration of cyclophosphamide with a 0.1, 1.0 and 10 mg/kg s.c. dose, respectively, of Glp-Lys-NH2 -mandelate dissolved in a physiological soidum chloride solution. On the 3rd day of the test the yeast cell incorporating capacity of the PEC cells is determined. The x±S.E.M. values disclosed in the Table stand for the number of yeast cells incorporated by the 100 PEC cells.

Test [7] deals with PEC cells. The test is described as follows: Phagocytosis inhibited by cyclophosphamide, non-simultaneously administered cyclophosphamide and peptide. It counts as in vivo, CFLP mice. The conditions noted are these: CY 80 mg/kg p.o., CY alone 112.1 ± 6.4, control 221 ± 9.4. As for the experimental part:
as §1, with “cells. One proceeds as described in test a) except that the peptide is administered to the animals 6 hours after treatment with cyclophosphamide. The test is evaluated as described above.” for “cells.”

Turning to Glp-Lys-NH2 [Peptide 1], the entries for the “Inhibition of the proliferation of K-562 cells, inhibition (c %)” value in test [1] (peptide 1/ug/ml) and in test [1] (peptide 10/ug/ml) were 20% and 42%, respectively. For the same substance, the “Relief of inhibition (R %) of E-rosetta forming activity” value in test [2] (peptide 10^-3 mole/l) was determined as 33.0%; in test [2] (peptide 10^-5 mole/l) it was 9.9%; in test [2] (peptide 10^-7 mole/l), 36.6%; in test [2] (peptide 10^-9 mole/l), 25.0%; in test [2] (peptide 10^-11 mole/l) it was 10.0%. Moreover, the “Restoration of primary immune answer, G %” value stood at 123.8% in test [3] (peptide 5 mg/kg i.p. on 3rd day) and 133.3% in test [3] (peptide 50 mg/kg i.p. on 3rd day). Besides, the “Inhibition of inflammation induced by oxozolone, inhibition as % of control” value stood at 62% in test [4] (1 mg/kg i.p.) and 61% in test [4] (2 mg/kg i.p.). Moreover, the “No. of metastases in the lungs” value turned out to be 0 in the test with Lewis Lung Tumor (LLT) (treated animal No. 1, untreated control 15); 2 in the test with Lewis Lung Tumor (LLT) (treated animal No. 2, untreated control 20); 1 with Lewis Lung Tumor (LLT) (treated animal No. 3, untreated control 16); 2 in the test on Lewis Lung Tumor (LLT) (treated animal No. 4, untreated control 12); 5 in the test with Lewis Lung Tumor (LLT) (treated animal No. 5, untreated control 11).

As for Glp-Lys-NH2 -mandelate, the “Phagocyte activity x ± S.E.M. (number of yeast cells incorporated into the 100 PEC cells)” value was found to be 182.3 ± 3.5 in test [5] (0.1 mg/kg s.c. once a day for 2 days), 209.3 ± 8.6 in test [5] (1.0 mg/kg s.c. once a day for 2 days) and 244.8 ± 4.3 in test [5] (10 mg/kg s.c. once a day for 2 days). Moreover, the “Phagocyte activity x ± S.E.M. (number of yeast cells incorporated by the 100 PEC cells)” value with PEC cells [6] (CY 80 mg/kg p.o. + peptide 0.1 mg/kg s.c. simultaneously) came out at 241.7 ± 20.3; in the test with PEC cells [6] (CY 80 mg/kg p.o. + peptide 1.0 mg/kg s.c. simultaneously) it was 215.2 ± 21.5; with PEC cells [6] (CY 80 mg/kg p.o. + peptide 10 mg/kg s.c. simultaneously) it was 164.4 ± 13.8; with PEC cells [7] (peptide 0.1 mg/kg s.c. 6 hours after CY), 226.5 ± 8.8; in the test on PEC cells [7] (peptide 1.0 mg/kg s.c. 6 hours after CY), 252.2 ± 7.4; in the test on PEC cells [7] (peptide 10 mg/kg s.c. 6 hours after CY) it was 257.3 ± 9.3.

Source of the values: patent US5041535A, “Antileukemic and immunostimulant peptides” (Richter Gedeon Vegyeszeti Gyar Rt., priority 1986, dated 1991).
